In data set [1] the test system is Salmonella typhimurium on chicken skin. Put plainly: Prevention of attachment of Salmonella on excised chicken skin (Table F5). The conditions noted are these: 30 minutes at room temperature; for CFU/ml on XLD agar: rinse water. As for the experimental part:
To determine the ability of surfactants to inhibit attachment or produce detachment of Salmonella, the following experiment was conducted. A hole was bored into the bottom of a 150 ml specimen cup. Chicken skin was excised from a drum stick and then placed over the cap of the specimen cup, and then the cap was screwed on. S. typhimurium was diluted 1:5000 with PBS or a surfactant. The surfactants were diluted appropriately. The skin was then inoculated with the solution containing the S. typhimurium and the surfactant for 30 minutes at room temperature.
Following incubation, the skin was washed. The rinse water was diluted appropriately in PBS and then plated onto XLD pour plates. The S. typhimurium was counted and reported as CFU/ml. The skin was swabbed so as to remove any remaining S. typhimurium using a nitroellulose lift and the CFU's/ml on the lift were also counted.

In data set [2] the test system is Salmonella typhimurium ATCC 14028 attached to human buccal epithelial cells. The class given is cell-based. The conditions noted are these: Table A-1. As for the experimental part: Studies were conducted on the attachment of Salmonella typhimurium to human buccal epithelial cells using the modified procedure of Boussard et al., International J. Pharmaceutics 53: 253-256 (1989). In this study, the activities of cationic and anionic surfactant compounds as well as certain chelating agents were compared on the detachment of S. typhimurium from epithelial cells.
To this end, bacteria were grown on nutrient agar for 16 hours at 37° C. The cells were suspended in 0.008 M phosphate buffered saline (PBS) at pH 7.2 and washed two times at 4500 rpm for 10 minutes. The last suspension was diluted in PBS to obtain a cell concentration of 0.5 to 1×10^9 cells/ml. Human epithelial cells were obtained by swabbing the buccal surface of a healthy, nonsmoking donor. […] The number of living cells was estimated and the suspension diluted to 0.5 to 1×10^5 cells/ml.
Next, the suspension of the human buccal cells was mixed with an equal volume of the bacterial suspension (3.0 ml), or PBS (0.8 ml). Contact was allowed for 1.5 hours at 35° C. under agitation. The mixtures were then centrifuged for 10 minutes at 4500 rpm. Each suspension, 1.0 ml, was transferred into Eppendorf vials and washed with PBS at 1500 rpm for 10 minutes. After the washing, the cells were treated with 1.0 ml PBS or 1.0 ml of the test chemical solution. Treatment was performed by suspending and vortexing on a low speed for 30 seconds followed by centrifugation at 1500 rpm for 10 minutes.
After the treatment, the cells were washed once with PBS and then 20 μl of erythrosin B was added to each vial. The suspension was centrifuged at 1500 rpm for 10 minutes, and the cells were washed twice under the same conditions. The final pellet was suspended in 300 μl of PBS. This suspension was spread out onto microscope slides and dried overnight at room temperature. After counter staining with methylene blue, the slides were microscopically examined under oil immersion.

In data set [3] the test system is Salmonella typhimurium on chicken skin. The experiment in a line: Effect of surfactants on Salmonella attached to chicken skin, drumsticks (Tables F1-F4). To be noted: 4° C. The method, then:
The following experiments utilizing chicken legs were conducted to determine the killing potential of a variety of surfactants against Salmonella on the skin and free in solutions. To this end, chicken legs obtained from the Department of Agriculture at the University of Arkansas, Fayetteville, were incubated for thirty minutes at room temperature with a 1:5000 dilution of Salmonella typhimurium. The chicken legs were removed five at a time and then rinsed twice in tap water to remove the unattached and excess Salmonella. The rinse water was sampled, diluted, and then plated onto XLD pour plates. […] The chicken legs were then removed and rinsed twice in tap water to remove the released Salmonella and excess chemicals. Rinses were then sampled, diluted, and then plated onto XLD pour plates.
The chicken legs were then individually washed with 100 ml sterile double distilled water, and then shaken fifty times. Samples of the wash H2 O were diluted and plated onto XLD pour plates. The chicken legs were further swabbed after the washing step above. The swabs were then plated onto the XLD plates. A set of wash samples were enriched with TT Broth Base Hajna and then plated onto XLD plates.
All of the samples were plated in 1 ml aliquots onto XLD pour plates. A positive control sample incubated in sterile double distilled water at 4° C. was run for each of the aforementioned conditions. Treatments occurred at both 4° C. and 25° C. The data is reported as the mean number of CFU/ml. The ratio in the table represents the number of chicken legs out of a sample of ten chicken legs producing the notated number of colonies, as indicated by the +, ++, +++, or ++++.

Like-named read-outs stand apart in the source and are kept apart here.

For `CCCCCCCCCCCCOS(=O)(=O)[O-].[Na+]` [SDS, sodium dodecylsulfate, reference compound], the “CFU/ml on XLD agar” value in data set [1] is recorded as 4 × 10^2 CFU/ml. The “adherence, mean value of attached bacteria” value in data set [2] (25 ug/ml) came out at 43 ± 25. Further, the “adherence, mean value of attached bacteria” value in data set [2] (50 ug/ml) is given as 26 ± 19. In addition, the “cytotoxicity to buccal epithelial cells” value in data set [2] (500 ug/ml) was “cytotoxic”. In data set [3] (0.1%), the “Enrichment, chicken legs out of ten” value is recorded as 10/10; the “Rinse H2O” value is given as “++ (11-100)”; the “Surfactant Solution” value is recorded as “++ (11-100)”; the “Swabs, chicken legs producing the notated number of colonies” value (from here on “Swabs … of colonies”) is given as 10/10. In data set [3] (0.1%), the “Swabs, colonies” value is “++ (11-100)”; the “Wash H2O, chicken legs producing the notated number of colonies” value (“Wash H2O … of colonies” below) is given as 10/10; the “Wash H2O, colonies” value is “++ (11-100)”. For the same compound, in data set [3] (0.5%), the “Enrichment, chicken legs out of ten” value was 10/10; the “Rinse H2O” value is “+ (1-10)”; the “Surfactant Solution” value is listed as “++ (11-100)”; the “Swabs … of colonies” value was 10/10. Further, in data set [3] (0.5%), the “Swabs, colonies” value is “++ (11-100)”; the “Wash H2O … of colonies” value was 10/10; the “Wash H2O, colonies” value was “++ (11-100)”. Besides, in data set [3] (1.0%), the “Enrichment, chicken legs out of ten” value is reported as 10/10; the “Rinse H2O” value is given as “+ (1-10)”; the “Surfactant Solution” value is listed as “+ (1-10)”; the “Swabs … of colonies” value is reported as 10/10. Moreover, in data set [3] (1.0%), the “Swabs, colonies” value is “++ (11-100)”; the “Wash H2O … of colonies” value is 10/10; the “Wash H2O, colonies” value was “++ (11-100)”.
Regarding “Benzalkonium Chloride [reference compound]”, the “CFU/ml on XLD agar” value in data set [1] is given as 0 CFU/ml. For the same compound, the “Nitrocellulose lift (# of colonies)” value in data set [1] (skin) was “OG(R)”. Besides, in data set [3] (0.1%), the “Enrichment, chicken legs out of ten” value was 1/10; the “Rinse H2O” value is recorded as “+ (1-10)”; the “Surfactant Solution” value is 0 CFU/ml; the “Swabs … of colonies” value is given as 6/10. Further, in data set [3] (0.1%), the “Swabs, colonies” value is reported as “+ (1-10)”; the “Wash H2O … of colonies” value is 4/10; the “Wash H2O, colonies” value is on record as “+ (1-10)”. Besides, in data set [3] (0.5%), the “Enrichment, chicken legs out of ten” value is on record as 1/10; the “Rinse H2O” value worked out at 0 CFU/ml; the “Surfactant Solution” value stood at 0 CFU/ml; the “Swabs … of colonies” value is on record as 1/10. For the same compound, in data set [3] (0.5%), the “Swabs, colonies” value is given as “+ (1-10)” and the “Wash H2O, colonies” value worked out at 0 CFU/ml. Also, in data set [3] (1.0%), the “Enrichment, chicken legs out of ten” value is 0/10; the “Rinse H2O” value turned out to be 0 CFU/ml; the “Surfactant Solution” value came to 0 CFU/ml; the “Swabs … of colonies” value is 1/10. Also, in data set [3] (1.0%), the “Swabs, colonies” value is “++ (11-100)” and the “Wash H2O, colonies” value was found to be 0 CFU/ml.

These data come from patent US5366983A, “Use of quaternary ammonium compounds to remove salmonella contamination from meat products” (The Board of Trustees of The University of Arkansas, priority 1992, dated 1994).
